Data published in US11337996B2 (priority 2012, dated 2022).
Values joined by “and” are separate entries in the source; they are usually repeats but may differ in a detail not shown here. Identical values can stand only once. “Also recorded” adds a separate entry of the source. Like-named read-outs stand apart in the source and are kept apart here. Marks after values point to notes of the source that are not given here.

How the values were obtained:
[1] = tested on: Clostridium perfringens (CP); format: in vivo, chickens
[2] = tested on: E. maxima; set-up: species or system chickens; conditions: in vivo
[3] = set-up: species or system Cobb 500 chicks; conditions: in vivo
[4] = tested on: Clostridium perfringens pathogen (CPP); format: in vivo, Cobb 500 chicks; conditions: CPP Challenge
[5] = tested on: Clostridium perfringens pathogen (CPP) + 1 ppm aflatoxin B1; set-up: species or system Cobb 500 chicks; conditions: in vivo
[6] = tested on: Clostridium perfringens pathogen (CPP) without and with Aflatoxin; set-up: species or system Cobb 500 chicks; conditions: in vivo
[7] = tested on: Clostridium perfringens (CPP) and aflatoxin; set-up: species or system Cobb 500 chicks; conditions: in vivo
[8] = tested on: Clostridium perfringens; format: in vivo, broiler chicken (Cobb X Cobb); conditions: infect
[9] = tested on: α-toxin antigen; conditions: in vivo
[10] = tested on: NetB toxin antigen; conditions: in vivo
[11] = tested on: IL8, LITAF, IL-6, iNOS, TNFSF15 expression; set-up: species or system broiler chickens (Ross/Ross); conditions: in vivo
[12] = tested on: IL8, LITAF, TNFSF15, IL-6, iNOS, IL-1β expression; set-up: species or system broiler chickens (Ross/Ross); conditions: in vivo

## virginiamycin [VM]
[1]; CP
  Feed Conversion Day 0-21: 1.746 ^bcdef
  Feed Conversion Day 0-28: 1.706 ^bcd
  Feed Conversion Day 14-21: 1.566 ^d
  Feed Conversion Day 14-28: 1.563 ^bcd
  Weight Gain Day 0-21: 0.511 ^bcd
  Weight Gain Day 0-28: 0.742 ^b
  Weight Gain Day 14-21: 0.295 ^bcd
  Weight Gain Day 14-28: 0.526 ^bcd
[1]; CP, 0 to 3 score
  Lesion Score: 0.2^cd
[1]; CP, listed as Virginiamycin
  Necrotic Enteritis Mortality, %: 6.3^bc %
[1]; CP, listed as virginiamycin
  Necrotic Enteritis Mortality, %: significantly better than no product
[1]; Table A, birds with a Clostridium perfringens challenge
  Rank (lesion score, necrotic enteritis mortality, d 14-28 weight gain and feed conversion ratio): 1
[1]; in vivo
  reduction of disease, in words: numerically the best
[2]
  Feed Conversion Day 0-21: 1.676 ^ef
  Feed Conversion Day 0-28: 1.604 ^e
  Feed Conversion Day 14-21: 1.550 ^d
  Feed Conversion Day 14-28: 1.480 ^d
  Lesion Score: 0.0^d
  Necrotic Enteritis Mortality, %: 0.0^c %
  Weight Gain Day 0-21: 0.569 ^ab
  Weight Gain Day 0-28: 0.845 ^a
  Weight Gain Day 14-21: 0.325 ^a
  Weight Gain Day 14-28: 0.601 ^a
[3]
  Feed Conversion Ratio Day 0-10: 1.28^b
  Feed Conversion Ratio Day 0-24: 1.34^ef
  Feed intake, g Day 0-10: 22.6^ab g
  Feed intake, g Day 10-24: 72.2^abc g and 72.2^abe g
  Gain, g Day 0-10: 180^a g
  Gain, g Day 0-24: 983^a g
  Gain, g Day 10-24: 804^a g
  Mortality, % Day 0-10: 0^f %
  Mortality, % Day 10-24: 0.63^bc %
  performance: improved performance
[4]
  Feed Conversion Ratio Day 0-10: 1.22^b
  Feed Conversion Ratio Day 0-24: 1.33^f
  Feed Conversion Ratio Day 10-24: 1.36^e
  Feed intake, g Day 0-10: 20.9^cde g
  Feed intake, g Day 0-24: 50.5^a g
  Feed intake, g Day 10-24: 73.6^a g
  Gain, g Day 0-10: 174^ab g
  Gain, g Day 0-24: 980^a g
  Gain, g Day 10-24: 806^a g
  Lesions Day 20: 1.025^a
  Mortality, % Day 0-10: 0.63^ef %
  Mortality, % Day 10-24: 0.63^bc %
[4]; listed as virginiamycin
  Gain, g Day 10-24: improved gain compared to the diet with no product
[5]
  Feed Conversion Ratio Day 0-24: 1.38^abcd
  Feed Conversion Ratio Day 10-24: 1.43^ab
  Feed intake, g Day 0-10: 20.0^efg
  Feed intake, g Day 0-24: 41.7^f g
  Feed intake, g Day 10-24: 58.7^g
  Gain, g Day 0-10: 166^cd g
  Gain, g Day 0-24: 788^f g
  Gain, g Day 10-24: 622^f g
  Lesions Day 20: 1.150^a
  Mortality, % Day 0-10: 0.63^ef %
  Mortality, % Day 10-24: 0.63^bc %
  gain: higher gains than adding NP
[6]
  Daily Feed Intake, g 0-10 d: 21.2^a g
  Daily Feed Intake, g 0-24 d: 47.6^ab g
  Daily Feed Intake, g 10-24 d: 68.2^b g
  FCR (F:G) 0-10 d: 1.24^c
  FCR (F:G) 0-24 d: 1.35^b
  FCR (F:G) 10-24 d: 1.39^b
  Gain, g 0-10 d: 173^a g
  Gain, g 0-24 d: 917^a g
  Gain, g 10-24 d: 744^a g
  Lesion Score at d-20: 0.767
  Mortality, % 0-10 d: 0.42^c %
  Mortality, % 10-24 d: 0.63%
[7]
  feed conversion: improved; also recorded: greatest improvement at 1.5 ppm
  feed intake: improved
  gain: improved; also recorded: higher gain that those birds not fed VM; also recorded: helps improve gain; also recorded: not at 1.5 ppm AFL
  lesion scores: increased
  mortality: decreased
[8]
  % NE Mortality: 1.6 bc %
  Feed Consumption D0-21: 4.733 b
  Feed Consumption D0-28: 6.313 b
  Feed Consumption D14-21: 2.312 c
  Feed Consumption D14-28: 2.891 bc
  Feed Conversion D0-21: 1.947 bc
  Feed Conversion D0-28: 1.929 bc
  Feed Conversion D14-21: 1.752 c
  Feed Conversion D14-28: 1.797 c
  Weight Gain D0-21: 0.316 b
  Weight Gain D14-21: 0.171 a
  Weight Gain D14-28: 0.367 b
[8]; DOT 21
  NE (0-3) Lesion Score: 0.5 ab
[9]
  antibodies to α-toxin (optical density): notable increases
  serum antibody levels against α-toxin: significantly higher
[10]
  serum antibody levels against the NetB toxin antigen: higher
  serum antibody response against NetB toxin antigen: increased
[11]
  IL8 expression: decreased
  IL-6 expression: generally decreased
  LITAF expression: decreased
  iNOS expression: generally decreased
[12]
  TNFSF15 expression: decreased
  iNOS expression: decreased
